Reference: patent US6867235B2, “Helianthrone derivatives as anti-cancer agents” (Yeda Research and Development Co. Ltd., priority 2000, dated 2005)

How the values were obtained:
LAN5 neuroblastoma cells = experiment: MTT cell viability in complete darkness, LAN5 cells; type: cell-based, human; conditions: exposure at least 72 hours, 0.1-20 μM
Description: (§1) Human HL-60 leukemic cells were grown in RPMI-1640 supplemented with 15% fetal calf serum, […] and 100 units/ml penicillin-streptomycin. Human erythroleukemia K-562 cells (derived from a chronic myeloid leukemia pateient) were grown in the same medium supplemented with 10% fetal calf serum. These cells and the human U251 glioblastoma, U87MG glioblastoma and LAN5 neuroblastoma cells used in the experiments are available from the ATCC. All cell lines were cultured in a humidified 5% CO2/95% air atmosphere at 37° C.
(§2) Cell viability was monitored by the MTT assay which measures reduction of 3-(4,5-dimethylthiazol-2-yl)-2,5-diphenyl tetrazolium bromide to formasan by mitochondria of viable cells as described in Mossman, T., J. Immunogen., 21, 235-248 (1983). The cells are incubated with MTT for four hours at 37° C. and analyzed in an ELISA reader at 560 nm. The optical density of formasan generated by untreated cell cultures (O.D. control) is defined as one MTT unit. The number of MTT units in culture samples undergoing treatments is calculated as the ratio (O.D.sample−O.D.blank)/O.D.control).
(§3) Three human malignant cell lines were evaluated to sensitivity to dimethyl TMH in vitro. […] The medium was aspirated, the adherent monolayer was washed with phosphate-buffered saline, and cell viability was monitored by the MTI assay.

[1] = test system: SQ2 anaplastic squamous cell carcinoma; experiment: Tumor foci in BALB/c mice bearing SQ2 squamous cell carcinoma treated with dimethyl-TMH; type: in vivo; conditions: for number of tumor foci / multifocal spread of the tumor: SQ2 tumor-bearing mice versus control
Description: The effective cytocidal activity of dimethyl-TMH in vitro encouraged the evaluation of its safety and anti-tumoral efficacy profile in tumor-bearing mice. Experiments were carried out in mice bearing tumors derived from the SQ2 highly metastatic anaplastic squamous cell carcinoma (SCC) line. This tumor develops as multifocal centers that spread at the vicinity of the primary tumor and metastases develop approximately two months after cell inoculation. Treatments with 300-600 μM dimethyl-TMH/mouse, administered twice or three-times a week were initiated when the tumors reached 5-7 mm in diameter.
When the primary tumors reached a diameter of 5 mm, therapy with 300 μM dimethyl-TMH/mouse, administered intraperitoneally twice per week, was initiated. Three weeks after the initiation of therapy, the number of tumor foci, which have developed at the primary tumor site, was recorded.

[2] = test system: human malignant glioblastoma cell lines; experiment: Photodynamic induction of cell death in glioblastoma cell lines with light; type: cell-based
Description: Cell killing by dimethyl-TMH occurred at doses in which hypericin had no effect on the cultures. […] The mechanisms that operate in the dark were very different from those that mediate light-induced photosensitization. In the dark, cell death occurs approximately four days after the compound is administered, whereas the cells died within 2-3 hours with light.
Photodynamic (PD) stress is the level of phototoxicity inflicted upon target cells by photodynamic compounds and exposure to light. Light irradiation was performed from a fluorescent source of two parallel 40 Watts tubes placed at a fixed distance of 16 cm and measured to emit an incidence of 4 mWatt/cm^2. Light intensities were quantitated using the IL 1350 Radiometer/Photometer, from International Light Inc., U.S.A.

[3] = test system: U251 human glioblastoma cells; experiment: Cell cycle and DNA content analysis (propidium iodide, FACS) in the dark; type: cell-based; conditions: for cell cycle arrest: U251, dark
From the text: The cells were then stained with propidium iodide, washed with PBS and analyzed in a fluorescence activated cell sorter (FACS). A computer program arranged the DNA-related fluorescence as follows: the minimal amount of fluorescence is considered to be one whole set of cellular DNA related to the resting G1 phase. A double amount of fluorescence is considered to be G2 phase, in which the whole genome is duplicated following complete DNA synthesis, and the in-between amounts are considered to be the DNA synthetic S-phase, in which the total DNA synthesis is not yet completed.

[4] = test system: human peripheral blood lymphocytes (PBL); experiment: MTT viability of primary peripheral blood lymphocytes in the dark and with light; type: cell-based; conditions: 72 hours
Description: as §2
Human peripheral blood lymphocytes (PBL) are non-proliferating cells in the absence of mitogenic stimuli. The effects of different doses of dimethyl-TMH on PBL were examined in the presence or absence of irradiation with polychromatic white light. PBL (post-mitotic) were plated (2×10^5 cells/well) in two separate round bottom 96-well plates (in triplicates). Dimethyl-TMH was added to the cultures. One plate was kept in the dark, and the other was exposed to polychromatic white light at a fluence rate of 8 mW/cm^2 for 30 min (a total of 14.4 J/cm^2). Both plates were then cultured at 37° C., 5% CO2 for 72 hours and cell viability was assayed by the MTT assay.

[5] = test system: U251 human glioblastoma cells; type: cell-based; conditions: U251, complete darkness, exposure at least 72 hours, 0.1-20 μM
Description: as §1, §2
Three human malignant cell lines were evaluated to sensitivity to dimethyl TMH in vitro. […] The medium was aspirated, the adherent monolayer was washed with phosphate-buffered saline, and cell viability was monitored by the MTI assay. […]

U87MG glioblastoma cells = experiment: MTT cell viability in complete darkness, U87MG cells; type: cell-based, human
Description: as §1, §2, §3

tumor neovascularization = experiment: Tumor neovascularization in tumor-bearing mice; conditions: mouse, in vivo
From the text: These hitherto unknown attributes were detected while studying the effects of hypericin and of helianthrone derivatives on breast adenocarcinoma tumors induced in mice with the DA-3^HI cell line and on murine anaplastic squamous carcinoma tumors induced with the SQ-2 cell line. Both are highly metastatic tumors and if surgically resected after having reached a diameter larger than 5 mm, the mice will go on to develop metastases in the lungs and liver. The metastases cause death of the animals within approximately two months following surgery.
By preventing development of new blood vessels to supply a growing metastasis, the rapidly growing metastatic focus is deprived of nutrients and oxygen for its rapidly multiplying cells and the lesion degenerates.

[6] = test system: SQ2 highly metastatic anaplastic squamous cell carcinoma; experiment: Survival of SQ2 squamous cell carcinoma-bearing mice treated with dimethyl-TMH; type: in vivo, BALB/c mice
Description: In another experiment, BALB/c mice were inoculated with 5×10^5 cells of the SQ2 highly metastatic anaplastic squamous cell carcinoma line, intradermally in shaved backs. When the primary tumors reached a diameter of 3-4 mm, i.p. administration of dimethyl TMH 200 μg/mouse (400 μM/mouse) was initiated on day 7 after tumor cell inoculation and then administered twice weekly to the tumor-bearing mice 2× per week for six weeks (total of 12 doses). Animal survival was then followed. […] This appears to be the result of reduced metastatic growth as evident from Table 1 in Example 4 above.

[7] = test system: anaplastic squamous cell carcinoma tumors; experiment: Tumor growth in mice bearing anaplastic squamous cell carcinoma tumors; type: in vivo, BALB/c mice; conditions: 200 μg/mouse every other day
[8] = Tolerability of intraperitoneal administration in mice; type: in vivo, BALB/c mice; conditions: i.p. on a daily basis for one week
[9] = 300 μM/mouse i.p. twice per week
[10] = 21 days after start of therapy, 300 μM/mouse i.p. twice per week

## COc1cc(OC)c2c3c(OC)cc(OC)c4c(=O)c5ccc(C)cc5c(c43)c3c4cc(C)ccc4c(=O)c1c23 [dimethyl-TMH, 10,13-dimethyl-1,3,4,6-tetramethoxy-helianthrone]
LAN5 neuroblastoma cells
  cell viability (MTT): Cell viability was lost
[1]; [9]
  toxicity of therapeutic doses to the animals: non-toxic
  treated mice in which the primary tumors hardened and fell off: 5
[1]; [10]
  number of mice with 1 focus: 8
  number of mice with 2 foci: 1
  number of mice with 3 foci: 0
  number of mice with 4 foci: 0
[1]
  number of tumor foci / multifocal spread of the tumor: considerably reduced
[1]; listed as dimethyl TMH
  number of tumor foci / multifocal spread of the tumor: completely inhibited
[2]; treatment in conjunction with light
  photodynamic induction of cell death compared with hypericin: more potent than hypericin
[2]; with light
  time to cell death: 2 to 3 h
[3]; 10 μM, 24, 48, 72 hours
  proportion of cells in the S-phase with duration of exposure: increased steadily
[3]; 10 μM
  cell cycle arrest: arrest at mid-S phase
[3]; 20 μM
  cell cycle arrest: exclusive arrest at the S phase
[3]; glioblastoma and neuroblastoma cells
  phases of the cell replication cycle at which malignant cells are arrested: mid S and G2 phases
[4]; normal non-proliferating PBL, absence of light irradiation
  effect on cell viability: no effect
[4]; polychromatic white light 8 mW/cm2 for 30 min (14.4 J/cm2), MTT
  LD50 (cell death after photosensitization): approximately 0.65 μM
[5]
  cell viability (MTT): Cell viability was lost
U87MG glioblastoma cells; complete darkness, exposure at least 72 hours, 0.1-20 μM
  cell viability (MTT): Cell viability was lost
U87MG glioblastoma cells; in the dark
  loss of cell viability compared with hypericin: more effective than the treatment with hypericin
Tumor neovascularization
  neovascularization of tumors: prevented neovascularization
[6]; 200 μg/mouse (400 μM/mouse) i.p. twice weekly for six weeks (12 doses)
  prolongation of animal survival compared to untreated controls: approximately 40.3%
[6]; 200 μg/mouse i.p. twice weekly for six weeks
  primary tumor growth during the treatment: continued to grow
[7]
  tumor growth compared to untreated tumor-bearing control mice: significant inhibition of tumor growth
[8]
  adverse effect on the animals: no adverse effect
